Measured values published in patent US10064865B2, “Composition comprising phosphodiesterase type 5 inhibitor for inhibiting apoptosis of nerve cells” (ARIBIO INC., priority 2012, dated 2018).
Marks after values point to notes of the source that are not given here.

How the values were obtained:
[1] = system: neuron apoptosis-operated rats, ipsilateral cerebral cortex; test: Example 1 histopathology (H&E): cerebral atrophy and degenerative neurons; type: in vivo, Sprague-Dawley (SD) rats; details: for Cerebral atrophic % / Numbers of neurons: Degenerative cells: 29 days after neuron apoptosis
Protocol: Total one hundred healthy male Sprague-Dawley (SD) rats (6-wk old upon receipt; Japan; Body weight ranged in 180-200 g upon receipt) were used after acclimatization for […]. Animals were allocated five per polycarbonate cage in a temperature (20-25° C.) and humidity (50-55%) controlled room. Light:dark cycle was 12 hr:12 hr, and standard rodent chow (Samyang, Korea) and water were supplied free to access. All animals were treated in accordance with the Guidelines for Care and Use of Laboratory Animals of Daegu Haany University based on the Guide for the Care and Use of Laboratory Animals by Institute of Laboratory Animal Resources, Commission on Life Science, National Research Council, USA on 1996, Washington D.C. Experimental groups were as follows:
The mirodenafil (mirodenafil 2HCl; SK Chemical Life Science Business, KR) was used in this experiment. […] Mirodenafil was stored at 4° C. in a refrigerator to protect from light and humidity until used. Three different dosages, 0.5, 1 and 2 mg/kg of mirodenafil were directly dissolved in saline and subcutaneously administered in a volume of 1 ml/kg on the dorsal back skins, once a day for 28 days from 24 hrs after stabilization periods from operation. In saline and neuron apoptosis control rats, equal volumes of saline as vehicle were administered, instead of mirodenafil, respectively.
The induction of neuron apoptosis was carried out by damaging the right hemisphere of the brain of animals. Specifically, animals were anesthetized with 2 or 3% isoflurane in the mixture of 70% N2O and 28.5% O2, and were maintained with 1 to 1.5% isoflurane in the mixture of 70% N2O and 28.5% O2. After that the temporalis muscle was bisected and reflected through an incision made midway between the eye and the eardrum canal. The proximal MCA was exposed through a subtemporal craniectomy by microdental drills without removing the zygomatic arch and without transecting the facial nerve. […] Mortality was less than 5%. For sham control, all procedures were performed in the same way, with the exception of the occlusion of the MCA.
At 29 days after neuron apoptosis rats were sacrificed. Brains were removed, washed in chilled phosphate buffered saline (PBS, pH7.4), and dissected into 6 coronal sections (2 mm thickness) ranging from 2 to 14 mm from the frontal brain pole on the rat brain stainless steel coronal matrix (Harvard, USA). Brain slices prepared by the stainless steel coronal matrix were directly fixed in 10% NBF, not stained with TTC. Then, embedded in paraffin, cross-sectioned, and stained with hematoxylin and eosin (H&E) for observing general histopathology of cerebral cortex. […] The histopathologist was blindes to group distribution when this analysis was made.
Histomorphometry: The atrophic % of ipsilateral cerebral cortex was calculated as following equation 1 as compared with intact contralateral hemisphere. In addition, the numbers of degenerative neurons were also measured in the restricted view fields of cerebral cortex, mm^2, respectively. Cerebral atrophy formation=(Contralateral cerebral cortex area−ipsilateral cerebral cortex area)/Contralateral cerebral cortex area×100(%) [EQUATION 1]
(§1) All data were expressed as mean±standard deviation (S.D.) of ten rats. Multiple comparison tests for different dose groups were conducted. Variance homogeneity was examined using the Levene test (Levene A, Clin Otalary, 1981; 6:145-51). […] Statistical analyses were conducted using SPSS (Release 14K, SPSS Inc., USA; Ludbrook, Clin Exp Pharmacol Physiol, 1997; 24:294-6). In addition, the percent changes between neuron apoptosis control and mirodenafil treated rats were calculated to help the understanding of the efficacy of test material as follow equation 3. Percentage changes as compared with neuron apoptosis control (%)=[((Data of mirodenafil treated groups−Data of neuron apoptosis control)/Data of neuron apoptosis control)×100] [EQUATION 3]

[2] = system: neuron apoptosis-operated rats; test: Example 1 body swing test; type: in vivo, Sprague-Dawley (SD) rats
Protocol: Sensorimotor function was evaluated by use of limb placing de Ryck M et al., Stroke. 20:1383-90(1989)) and body swing (Borlongan and Sanberg, J Neurosci. 15:5372-8(1995)) tests. These tests were performed one day before neuron apoptosis to obtain a baseline and then at 1, 3, 7, 14, 21 and 28 days after neuron apoptosis. Behavioral tests were done before drug administration on days when both were scheduled. The investigator performing the surgery and behavioral assessments was blinded to treatment assignment.
Body swing tests: Animals were held approximately 2 cm from the base of its tail and elevated to an inch above a surface of a table. A swing was recorded whenever the rat moved its head out of the vertical axis to either side by more than 10° from vertical and then returned to the vertical position. Thirty total swings were counted per animal. After right-hemisphere neuron apoptosis, animals tend to swing to the contralateral (left) side. Thus, the numbers and percentages of body swings to the ipsilateral (right) side were recorded as a measure of recovery, with an intact animal scoring.
as §1

[3] = 0.5 mg/kg group, day 1 after operation (before drug administration)
[4] = 0.5 mg/kg group, day −1 (baseline)
[5] = 0.5 mg/kg s.c. once a day, day 3 after operation
[6] = 0.5 mg/kg s.c. once a day, day 7 after operation
[7] = 0.5 mg/kg s.c. once a day, day 14 after operation
[8] = 0.5 mg/kg s.c. once a day, day 21 after operation
[9] = 0.5 mg/kg s.c. once a day, day 28 after operation
[10] = 1 mg/kg group, day 1 after operation (before drug administration)
[11] = 1 mg/kg group, day −1 (baseline)
[12] = 1 mg/kg s.c. once a day, day 3 after operation
[13] = 1 mg/kg s.c. once a day, day 7 after operation
[14] = 1 mg/kg s.c. once a day, day 14 after operation
[15] = 1 mg/kg s.c. once a day, day 21 after operation
[16] = 1 mg/kg s.c. once a day, day 28 after operation
[17] = 2 mg/kg group, day 1 after operation (before drug administration)
[18] = 2 mg/kg group, day −1 (baseline)
[19] = 2 mg/kg s.c. once a day, day 3 after operation
[20] = 2 mg/kg s.c. once a day, day 7 after operation
[21] = 2 mg/kg s.c. once a day, day 14 after operation
[22] = 2 mg/kg s.c. once a day, day 21 after operation
[23] = 2 mg/kg s.c. once a day, day 28 after operation

## CCCOc1ccc(S(=O)(=O)N2CCN(CCO)CC2)cc1-c1nc2c(CCC)cn(CC)c2c(=O)[nH]1 [Mirodenafil, mirodenafil]
[1]; 0.5 mg/kg
  ipsilateral cerebral atrophic %, change as compared with neuron apoptosis control: −8.70%
  numbers of degenerative neurons, change as compared with neuron apoptosis control: −44.47%
[1]; 0.5 mg/kg s.c. once a day
  Cerebral atrophic %: 51.38 ± 10.74^a %
  Numbers of neurons: Degenerative cells: 45.20 ± 8.97^ab cells/mm^2 of cerebral cortex
[1]; 1 mg/kg
  ipsilateral cerebral atrophic %, change as compared with neuron apoptosis control: −46.42%
  numbers of degenerative neurons, change as compared with neuron apoptosis control: −73.46%
[1]; 1 mg/kg s.c. once a day
  Cerebral atrophic %: 30.15 ± 10.28^ab %
  Numbers of neurons: Degenerative cells: 21.60 ± 9.43^ab cells/mm^2 of cerebral cortex
[1]; 2 mg/kg
  ipsilateral cerebral atrophic %, change as compared with neuron apoptosis control: −53.31%
  numbers of degenerative neurons, change as compared with neuron apoptosis control: −76.54%
[1]; 2 mg/kg s.c. once a day
  Cerebral atrophic %: 26.28 ± 9.12^ab %
  Numbers of neurons: Degenerative cells: 19.10 ± 2.08^ab cells/mm^2 of cerebral cortex
[2]; [3]
  The numbers of body swings to the ipsilateral right sides/total 30 body swings: 1.40 ± 1.17^a
  The percentages of body swings to the ipsilateral right sides/total 30 body swings: 4.67 ± 3.91^a %
[2]; [4]
  The numbers of body swings to the ipsilateral right sides/total 30 body swings: 15.10 ± 0.99
  The percentages of body swings to the ipsilateral right sides/total 30 body swings: 50.33 ± 3.31%
[2]; [5]
  The numbers of body swings to the ipsilateral right sides/total 30 body swings: 2.10 ± 1.37^a
  The percentages of body swings to the ipsilateral right sides/total 30 body swings: 7.00 ± 4.57^a %
[2]; [6]
  The numbers of body swings to the ipsilateral right sides/total 30 body swings: 2.40 ± 1.26^a
  The percentages of body swings to the ipsilateral right sides/total 30 body swings: 8.00 ± 4.22^a %
[2]; [7]
  The numbers of body swings to the ipsilateral right sides/total 30 body swings: 4.20 ± 1.62^ac
  The percentages of body swings to the ipsilateral right sides/total 30 body swings: 14.00 ± 5.40^ac %
[2]; [8]
  The numbers of body swings to the ipsilateral right sides/total 30 body swings: 5.40 ± 1.26^ab
  The percentages of body swings to the ipsilateral right sides/total 30 body swings: 18.00 ± 4.22^ab %
[2]; [9]
  The numbers of body swings to the ipsilateral right sides/total 30 body swings: 6.20 ± 1.99^ac
  The percentages of body swings to the ipsilateral right sides/total 30 body swings: 20.67 ± 6.63^ac %
[2]; 0.5 mg/kg, 3 days after surgery
  numbers and percentages of body swings to ipsilateral right sides, change as compared with neuron apoptosis control: 16.67%
[2]; 0.5 mg/kg, 7 days after surgery
  numbers and percentages of body swings to ipsilateral right sides, change as compared with neuron apoptosis control: 9.09%
[2]; 0.5 mg/kg, 14 days after surgery
  numbers and percentages of body swings to ipsilateral right sides, change as compared with neuron apoptosis control: 44.83%
[2]; 0.5 mg/kg, 21 days after surgery
  numbers and percentages of body swings to ipsilateral right sides, change as compared with neuron apoptosis control: 50.00%
[2]; 0.5 mg/kg, 28 days after surgery
  numbers and percentages of body swings to ipsilateral right sides, change as compared with neuron apoptosis control: 44.19%
[2]; [10]
  The numbers of body swings to the ipsilateral right sides/total 30 body swings: 1.30 ± 0.95^a
  The percentages of body swings to the ipsilateral right sides/total 30 body swings: 4.33 ± 3.16^a %
[2]; [11]
  The numbers of body swings to the ipsilateral right sides/total 30 body swings: 15.10 ± 1.29
  The percentages of body swings to the ipsilateral right sides/total 30 body swings: 50.33 ± 4.29%
[2]; [12]
  The numbers of body swings to the ipsilateral right sides/total 30 body swings: 2.70 ± 0.82^a
  The percentages of body swings to the ipsilateral right sides/total 30 body swings: 9.00 ± 2.74^a %
[2]; [13]
  The numbers of body swings to the ipsilateral right sides/total 30 body swings: 3.10 ± 0.88^a
  The percentages of body swings to the ipsilateral right sides/total 30 body swings: 10.33 ± 2.92^a %
[2]; [14]
  The numbers of body swings to the ipsilateral right sides/total 30 body swings: 5.80 ± 1.23^ab
  The percentages of body swings to the ipsilateral right sides/total 30 body swings: 19.33 ± 4.10^ab %
[2]; [15]
  The numbers of body swings to the ipsilateral right sides/total 30 body swings: 7.30 ± 1.89^ab
  The percentages of body swings to the ipsilateral right sides/total 30 body swings: 24.33 ± 6.30^ab %
[2]; [16]
  The numbers of body swings to the ipsilateral right sides/total 30 body swings: 11.50 ± 1.58^ab
  The percentages of body swings to the ipsilateral right sides/total 30 body swings: 38.33 ± 5.27^ab %
[2]; 1 mg/kg, 3 days after surgery
  numbers and percentages of body swings to ipsilateral right sides, change as compared with neuron apoptosis control: 50.00%
[2]; 1 mg/kg, 7 days after surgery
  numbers and percentages of body swings to ipsilateral right sides, change as compared with neuron apoptosis control: 40.91%
[2]; 1 mg/kg, 14 days after surgery
  numbers and percentages of body swings to ipsilateral right sides, change as compared with neuron apoptosis control: 100.00%
[2]; 1 mg/kg, 21 days after surgery
  numbers and percentages of body swings to ipsilateral right sides, change as compared with neuron apoptosis control: 102.78%
[2]; 1 mg/kg, 28 days after surgery
  numbers and percentages of body swings to ipsilateral right sides, change as compared with neuron apoptosis control: 167.44%
[2]; [17]
  The numbers of body swings to the ipsilateral right sides/total 30 body swings: 1.20 ± 0.63^a
  The percentages of body swings to the ipsilateral right sides/total 30 body swings: 4.00 ± 2.11^a %
[2]; [18]
  The numbers of body swings to the ipsilateral right sides/total 30 body swings: 15.00 ± 1.15
  The percentages of body swings to the ipsilateral right sides/total 30 body swings: 50.00 ± 3.85%
[2]; [19]
  The numbers of body swings to the ipsilateral right sides/total 30 body swings: 3.00 ± 0.82^ac
  The percentages of body swings to the ipsilateral right sides/total 30 body swings: 10.00 ± 2.72^ac %
[2]; [20]
  The numbers of body swings to the ipsilateral right sides/total 30 body swings: 3.20 ± 0.63^ac
  The percentages of body swings to the ipsilateral right sides/total 30 body swings: 10.67 ± 2.11^ac %
[2]; [21]
  The numbers of body swings to the ipsilateral right sides/total 30 body swings: 6.00 ± 1.56^ab
  The percentages of body swings to the ipsilateral right sides/total 30 body swings: 20.00 ± 5.21^ab %
[2]; [22]
  The numbers of body swings to the ipsilateral right sides/total 30 body swings: 8.80 ± 1.23^ab
  The percentages of body swings to the ipsilateral right sides/total 30 body swings: 29.33 ± 4.10^ab %
[2]; [23]
  The numbers of body swings to the ipsilateral right sides/total 30 body swings: 11.10 ± 1.91^ab
  The percentages of body swings to the ipsilateral right sides/total 30 body swings: 37.00 ± 6.37^ab %
[2]; 2 mg/kg, 3 days after surgery
  numbers and percentages of body swings to ipsilateral right sides, change as compared with neuron apoptosis control: 66.67%
[2]; 2 mg/kg, 7 days after surgery
  numbers and percentages of body swings to ipsilateral right sides, change as compared with neuron apoptosis control: 45.45%
[2]; 2 mg/kg, 14 days after surgery
  numbers and percentages of body swings to ipsilateral right sides, change as compared with neuron apoptosis control: 106.90%
[2]; 2 mg/kg, 21 days after surgery
  numbers and percentages of body swings to ipsilateral right sides, change as compared with neuron apoptosis control: 144.44%
[2]; 2 mg/kg, 28 days after surgery
  numbers and percentages of body swings to ipsilateral right sides, change as compared with neuron apoptosis control: 158.14%
